This data set is described as follows: Solubility test, classical saturation shake-flask method in 0.1N HCl. It is filed as physicochemical.

Structures are written as SMILES.

Description: The Solubility test performed for showing the present invention's advantages is well known in the state of the art and is based on the “Classical saturation shake-flask method”, which comprises: Agitation at 37° C. during 15 h of supersaturated solution of the solid in HCl (aq) 0.1N, followed by filtration, dilution with water and quantification by UV measurement at 267 nm wavelength.

`Cc1ccc2c(c1)c1c3n2CCNC3CCC1.Cl` (racemic) [(rac)-pirlindole•HCl, 2,3,3a,4,5,6-hexahydro-1H-8-methyl-pyrazine [3,2,1-j,k]carbazole]: the “Solubility category in 0.1 N HCl” value is given as “slightly soluble”.
